# Data: PMC10058761, “Heart-Type Fatty Acid Binding Protein Binds Long-Chain Acylcarnitines and Protects against Lipotoxicity” (International Journal of Molecular Sciences, 2023)
# “And” between values parts separate entries of the source, which are not always exact repeats. Equal values may be shown once.
# Key:
# human FABP3 [1] = target: T1, human FABP3 (Homo sapiens, UniProt P05413); assay: ITC assay of ligand binding to apo-FABP3; details: for Kd / ΔG / ΔH / −TΔS / N (stoichiometry) / binding to FABP3 (binding heat effects) by ITC: KPi pH 7.6, 25 °C; for N (stoichiometry): protein assumed 100% active and delipidated
# T1 construct: His-tag (N); TEV cleavage site (N); made in house; host or cells: E. coli BL21(DE3)
# Description: ITC experiments were carried out on the MicroCal™ iTC200 instrument (Malvern Instruments Ltd., Malvern, UK). Experiments were performed in KPi buffer without and with 0.1% (v/v) TX supplement. […] Experiments for the determination of the ΔCp were performed at three different temperatures: 16, 25, and 37 °C. […] Every titration started with a small 0.3 μL injection introduced to compensate for the diffusion effects. One of the following injection profiles was chosen based on the activity of the ligand and binding heat released: 1.2 μL × 32 or 1.5 μL × 26—all with 120 s time spacing between every injection and 600 rpm. Each ligand was titrated at least two times. The reference baseline consisting of small peaks of identical size (titration of the corresponding ligand into the buffer) was subtracted from the data before fitting to correct for the heat of the ligand dilution. The first injection was excluded from each dataset. The final data were fitted to a theoretical titration curve (one set of sites fitting model) using MicroCal Origin 7 SR4 software (OriginLab, Northampton, MA, USA).
# human FABP3 [2] = target: T1, human FABP3; assay: ITC competitive binding experiments (FABP3 pre-saturated with a competing ligand); details: FABP3 saturated with C18:1(n-9)t-carnitine, titrated with the FA, 25 °C
# Description: ITC experiments were carried out on the MicroCal™ iTC200 instrument (Malvern Instruments Ltd., Malvern, UK). Experiments were performed in KPi buffer without and with 0.1% (v/v) TX supplement. All titrations except for the determination of the heat capacity, ΔCp, were performed at 25 °C using 20–120 μM protein. Experiments for the determination of the ΔCp were performed at three different temperatures: 16, 25, and 37 °C. 280 μL of the protein solution in the sample cell were titrated with the ligand solution diluted to 200–1200 μM depending on the enzyme concentration (to achieve a 1:10 or 1:5 ratio). Every titration started with a small 0.3 μL injection introduced to compensate for the diffusion effects. One of the following injection profiles was chosen based on the activity of the ligand and binding heat released: 1.2 μL × 32 or 1.5 μL × 26—all with 120 s time spacing between every injection and 600 rpm. Each ligand was titrated at least two times. The reference baseline consisting of small peaks of identical size (titration of the corresponding ligand into the buffer) was subtracted from the data before fitting to correct for the heat of the ligand dilution. The first injection was excluded from each dataset. […]
# human FABP3 [3] = target: T1, human FABP3; assay: ITC determination of heat capacity change at 16, 25 and 37 °C; type: binding; details: ΔH at 16, 25, 37 °C, linear regression
# From the text: Heat capacity changes, ΔCp, are important indicators of the structural changes during ligand-to-protein binding in various environmental conditions and may reflect changes in the static and dynamic properties of the protein [33, 34]. Moreover, it may represent interactions with extra supplements, such as salts and detergents, and larger processes, such as changes in protein folding, solvent-accessible surface area (SASA), or protonation states within the active site. […] Thermodynamic parameters for the remaining LCFAs were determined in the KPi + TX buffer, while LCACs were tested in the KPi buffer without any additive. Figure 7 represents an example of the overlays of the ITC experiments for C18:1(n-9)c and the corresponding LCAC performed at the following temperatures: 16, 25, and 37 °C.
# ITC experiments were carried out on the MicroCal™ iTC200 instrument (Malvern Instruments Ltd., Malvern, UK). Experiments were performed in KPi buffer without and with 0.1% (v/v) TX supplement. All titrations except for the determination of the heat capacity, ΔCp, were performed at 25 °C using 20–120 μM protein. Experiments for the determination of the ΔCp were performed at three different temperatures: 16, 25, and 37 °C. 280 μL of the protein solution in the sample cell were titrated with the ligand solution diluted to 200–1200 μM depending on the enzyme concentration (to achieve a 1:10 or 1:5 ratio). Every titration started with a small 0.3 μL injection introduced to compensate for the diffusion effects. One of the following injection profiles was chosen based on the activity of the ligand and binding heat released: 1.2 μL × 32 or 1.5 μL × 26—all with 120 s time spacing between every injection and 600 rpm. Each ligand was titrated at least two times. The reference baseline consisting of small peaks of identical size (titration of the corresponding ligand into the buffer) was subtracted from the data before fitting to correct for the heat of the ligand dilution. The first injection was excluded from each dataset. The final data were fitted to a theoretical titration curve (one set of sites fitting model) using MicroCal Origin 7 SR4 software (OriginLab, Northampton, MA, USA).
# human FABP3 [4] = target: T1, human FABP3; assay: Ligand binding by NMR (2D 1H-15N HSQC chemical shift perturbations); details: KPi buffer pH 7.6
# Description: NMR spectra were acquired on the 600 MHz Bruker Avance Neo spectrometer (Bruker Biospin GmbH, Rheinstetten, Germany) equipped with a 5-mm quadruple-resonance CryoProbe (QCI) with z-gradients. […] All experiments were performed in KPi buffer without or with TX and with the addition of 7% (v/v) D2O, 0.03% (v/v) NaN3, and 0.01% (v/v) SigmaFAST EDTA-free protease inhibitor cocktail to prevent protein degradation. The amount of organic solvent (ethanol or DMSO-d6) was below 2% (v/v) in each experiment.
# 3D HNCA, 3D HNCO, 3D HN(CA)CO, and 3D CBCA(CO)NH spectra were acquired for the backbone assignment. 3D [^1H,^1H]-nuclear Overhauser spectroscopy (NOESY)-^15N-heteronuclear single-quantum correlation (HSQC) spectrum was acquired using a mixing time of 100 ms and also used in the backbone assignment. 2D ^1H-^15N HSQC spectra were acquired for evaluation of the CSPs caused by the lipid binding. Chemical shifts were referenced internally to the residual water signal at 4.70 ppm relative to the 4,4-dimethyl-4-silapentane-1-sulfonic acid (DSS). […] Other complexes were analyzed by analogy and with the help of 3D [^1H-^1H]-NOESY-^15N-HSQC. All spectra were processed in TopSpin v. 4.1.1. (Bruker, Billerica, MA, USA) and analyzed in CARA 1.9.1. software. Residue-specific protein backbone amide assignment was performed based on the published chemical shifts. CSPs, Δδ, were calculated using Equation (1) with the scaling factor, α, which was set to 0.1 [67, 68]. (1) Δδ=1/2[δH2+α·δN^2],
# [5] = KPi + 0.10% TX, Competitive Binding model
# [6] = KPi + 0.10% TX, One Set of Sites model
# [7] = KPi without TX, Competitive Binding model
# [8] = KPi without TX, One Set of Sites model
# T1 sequence (P05413 whole entry): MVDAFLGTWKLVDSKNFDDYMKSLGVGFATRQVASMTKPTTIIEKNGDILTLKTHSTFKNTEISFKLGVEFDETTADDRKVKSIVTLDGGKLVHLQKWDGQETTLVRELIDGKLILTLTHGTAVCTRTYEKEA
Compound,Kd (human FABP3 [1]; with 0.1% TX),ΔG (human FABP3 [1]; with 0.1% TX),ΔH (human FABP3 [1]; with 0.1% TX),−TΔS (human FABP3 [1]; with 0.1% TX),N (stoichiometry) (human FABP3 [1]; with 0.1% TX),Kd (human FABP3 [1]; without TX),ΔG (human FABP3 [1]; without TX),ΔH (human FABP3 [1]; without TX),−TΔS (human FABP3 [1]; without TX),N (stoichiometry) (human FABP3 [1]; without TX),binding to FABP3 by NMR (CSPs in 2D 1H-15N HSQC) (human FABP3 [4]),also measured
"CCCCCCCCCCCCCC(=O)O [C14:0, myristate]",300 ± 100 nM,-8.9 ± 0.2 kcal/mol,-10.9 ± 0.4 kcal/mol,1.9 ± 0.2 kcal/mol,1.0,–,–,–,–,–,–,–
"CCCCCCCC/C=C/CCCCCCCC(=O)O [C18:1(n-9)t, elaidate]",210 ± 20 nM,-9.12 ± 0.06 kcal/mol,-8.0 ± 0.9 kcal/mol,-1.1 ± 0.9 kcal/mol,1.0,–,–,–,–,–,–,ΔCp (human FABP3 [3]; KPi with 0.1% TX): −0.15 ± 0.02 kcal∙mol^−1∙K^−1
"CCCCCCCCCC(=O)O [C10:0, caprate]",560 ± 20 nM,-8.535 ± 0.007 kcal/mol,–,4.7 ± 0.3 kcal/mol,1.0,252 ± 4 nM,-9.01 ± 0.01 kcal/mol,-11.09 kcal/mol and -11.09 ± 0.08 kcal/mol,2.08 ± 0.08 kcal/mol,1.0,–,ΔG (human FABP3 [2]; [7]): -11.8 ± 0.1 kcal/mol; ΔH (human FABP3 [2]; [7]): -14.1 ± 0.2 kcal/mol; -TΔS (human FABP3 [2]; [8]): 1.0 ± 0.1 kcal/mol; Kd (human FABP3 [2]; [8]): 360 ± 70 nM; ΔG (human FABP3 [2]; [8]): -8.8 ± 0.1 kcal/mol; ΔH (human FABP3 [2]; [8]): -9.8 ± 0.2 kcal/mol
"CCCCCCCCCCCCCC(=O)O[C@H](CC(=O)O)C[N+](C)(C)C.[Cl-] [C14:0-carnitine, miristoylcarnitine]",–,–,–,–,–,11300 nM,-6.7 kcal/mol,-1.1 kcal/mol,-5.7 kcal/mol,0.5,strong CSPs indicative of binding,–
"CC/C=C\C/C=C\C/C=C\C/C=C\C/C=C\CCCC(=O)O [C20:5(n-3)c, EPA]",1600 ± 200 nM,-7.90 ± 0.07 kcal/mol,-17.4 ± 0.7 kcal/mol,9.5 ± 0.8 kcal/mol,1.0,–,–,–,–,–,–,ΔCp (human FABP3 [3]; KPi with 0.1% TX): −0.37 ± 0.03 kcal∙mol^−1∙K^−1
"CCCCCCCCCCCCCCCC(=O)SCCNC(=O)CCNC(=O)[C@H](O)C(C)(C)COP(=O)(O)OP(=O)(O)OC[C@H]1O[C@@H](n2cnc3c(N)ncnc32)[C@H](O)[C@@H]1OP(=O)(O)O [C16:0-CoA, palmitoyl-CoA]",–,–,–,–,–,8900 ± 1200 nM,-6.90 ± 0.08 kcal/mol,-5.04 ± 0.09 kcal/mol,-1.86 ± 0.01 kcal/mol,1.0,strong CSPs indicative of binding,effect of detergent addition on binding to FABP3 (ITC) (human FABP3 [1]; KPi with TX detergent): completely blocked the binding
"C[N+](C)(C)C[C@H](O)CC(=O)[O-] [carnitine, L-carnitine]",–,–,–,–,–,–,–,–,–,–,neither bind nor interact,–
Triton™ X-100 [TX],–,–,–,–,–,–,–,–,–,–,did not interact with the FABP3 core structure,–

# Second part, led by results:
Kd (human FABP3 [1]; with 0.1% TX),ΔG (human FABP3 [1]; with 0.1% TX),ΔH (human FABP3 [1]; with 0.1% TX),−TΔS (human FABP3 [1]; with 0.1% TX),N (stoichiometry) (human FABP3 [1]; with 0.1% TX),Kd (human FABP3 [1]; without TX),ΔG (human FABP3 [1]; without TX),ΔH (human FABP3 [1]; without TX),−TΔS (human FABP3 [1]; without TX),N (stoichiometry) (human FABP3 [1]; without TX),binding to FABP3 by NMR (CSPs in 2D 1H-15N HSQC) (human FABP3 [4]),Compound,also measured
–,-9.34 ± 0.07 kcal/mol,-8.7 ± 0.9 kcal/mol,-0.6 ± 0.8 kcal/mol,1.0,–,–,–,–,–,–,"CCCCCCCCCCCCCCCC(=O)O [C16:0, palmitate]",-TΔS (human FABP3 [2]; [5]): 0.2 ± 0.1 kcal/mol; ΔG (human FABP3 [2]; [5]): -11.62 kcal/mol; ΔH (human FABP3 [2]; [5]): -11.77 kcal/mol; -TΔS (human FABP3 [2]; [6]): -1.14 ± 0.05 kcal/mol; ΔG (human FABP3 [2]; [6]): -8.63 ± 0.01 kcal/mol; ΔH (human FABP3 [2]; [6]): -7.49 ± 0.05 kcal/mol
1109 ± 1 nM,-8.13 ± 0.01 kcal/mol,-12.6 ± 0.3 kcal/mol,4.5 ± 0.3 kcal/mol,1.0,1860 ± 50 nM,-7.82 ± 0.02 kcal/mol,-8.01 ± 0.09 kcal/mol,0.19 ± 0.07 kcal/mol,1.0,–,"CCCCCCCC(=O)O [C8:0, caprylate]",–
–,–,–,–,–,–,–,–,–,–,did not bind,CCCCCCCCCCCC(=O)O[C@H](CC(=O)O)C[N+](C)(C)C [C12:0-carnitine],binding to FABP3 (binding heat effects) by ITC (human FABP3 [1]; without TX): no binding
700 ± 100 nM,-8.34 ± 0.04 kcal/mol,-6.4 ± 0.4 kcal/mol,-2.0 ± 0.4 kcal/mol,1.0,–,–,–,–,–,–,"CCCCCCCCCCCCCCCCCC(=O)O [C18:0, stearate]",–
–,–,–,–,–,–,–,–,–,–,did not bind,CCCCCCCC(=O)O[C@H](CC(=O)O)C[N+](C)(C)C.[Cl-] [C8:0-carnitine],binding to FABP3 (binding heat effects) by ITC (human FABP3 [1]; without TX): no binding
290 ± 30 nM,-8.93 ± 0.06 kcal/mol,-10.0 ± 0.4 kcal/mol,1.1 ± 0.5 kcal/mol,1.0,–,–,–,–,–,–,"CCCCCCCC/C=C\CCCCCCCC(=O)O [C18:1(n-9)c, oleate]",ΔCp (human FABP3 [3]; KPi with 0.1% TX): −0.29 ± 0.06 kcal∙mol^−1∙K^−1
570 ± 60 nM,-8.54 ± 0.06 kcal/mol,-14.5 ± 0.4 kcal/mol,6.0 ± 0.3 kcal/mol,1.0,200 ± 20 nM,-9.12 ± 0.06 kcal/mol,-8.60 ± 0.08 kcal/mol,-0.53 ± 0.02 kcal/mol,1.0,–,"CCCCCCCCCCCC(=O)O [C12:0, laurate]",ΔCp (human FABP3 [3]; KPi without TX): −0.33 kcal∙mol^−1∙K^−1 and −0.33 ± 0.01 kcal∙mol^−1∙K^−1; -TΔS (human FABP3 [2]; [7]): -0.4 ± 1.1 kcal/mol; ΔG (human FABP3 [2]; [7]): -12.5 ± 0.9 kcal/mol; ΔH (human FABP3 [2]; [7]): -12.1 ± 0.2 kcal/mol; -TΔS (human FABP3 [2]; [8]): -1.0 ± 0.1 kcal/mol; Kd (human FABP3 [2]; [8]): 360 ± 30 nM; ΔG (human FABP3 [2]; [8]): -8.80 ± 0.04 kcal/mol; ΔH (human FABP3 [2]; [8]): -7.8 ± 0.2 kcal/mol
